What follows are molecules tested against T1, KRAS G12C (GMPPNP-loaded) and cRAF Ras-binding domain (Homo sapiens, UniProt P01116, C118S/C51S/C80L/G12C) (assay: Inhibition of KRAS G12C and cRAF binding (AlphaScreen)). Details: KRAS G12C preloaded with GTP analogue GMPPNP, 2 hours preincubation.
T1 construct: truncated version comprising amino acids 1-169
How it was run: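 Compounds (10-point, 1:3 from 50 μM; 2% DMSO) were incubated 2 h at room temperature with 0.5 nM GMPPNP-preloaded truncated Cys-light KRAS G12C, then 60-90 min with 0.75 nM GST-RBD of cRAF and AlphaScreen beads. Signal at 570 nm gave IC50 by 4-parameter regression, and a biotin-AviTag-GST counter assay excluded interference with the AlphaScreen readout.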

T1 sequence (P01116 1-169 isoform P01116-2 G12C/C51S/C80L/C118S): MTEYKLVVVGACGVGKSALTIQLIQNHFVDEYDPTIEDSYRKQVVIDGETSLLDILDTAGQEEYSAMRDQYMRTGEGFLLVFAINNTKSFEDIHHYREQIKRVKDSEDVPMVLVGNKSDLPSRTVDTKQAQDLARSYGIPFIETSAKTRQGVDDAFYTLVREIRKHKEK

Row | SMILES | IC50 [nM]
1 | Cc1noc(/C=C/C(=O)N2CC[C@@H](N(C)c3nc(OC[C@@]45CCCN4C[C@H](F)C5)nc4c3C[C@H](C)[C@@H](c3nc(N)cc(C)c3C(F)(F)F)C4)C2)n1 [Example 81, (E)-1-((R)-3-(((6S,7S)-7-(6-amino-4-methyl-3-(trifluoromethyl)pyridin-2-yl)-2-(((2R,7aS)-2-fluorotetrahydro-1H-pyrrolizin-7a(5H)-yl)methoxy)-6-methyl-5,6,7,8-tetrahydroquinazolin-4-yl)(methyl)amino)pyrrolidin-1-yl)-3-(3-methyl-1,2,4-oxadiazol-5-yl)prop-2-en-1-one] | 100 to 500
2 | CN(c1nc(OC[C@@]23CCCN2C[C@H](F)C3)nc2c(F)c(-c3cccc(Cl)c3C3CC3)ncc12)[C@@H]1CCN(C(=O)C#CCN2CC3CCC(C2)O3)C1 [Example 257] | 10 to 100
3 | C=CC(=O)N1CC[C@@H](N(C)c2nc(OC[C@@]34CCCN3C[C@H](F)C4)nc3c2CC(C)C(c2nc(N)cc(C)c2C(F)(F)F)C3)C1 (some centres unmarked) [Example 138] | 100 to 500
4 | Cc1cc(N)nc(-c2ncc3c(N4CCN(C#N)[C@@H](CC#N)C4)nc(OC[C@@]45CCCN4C[C@H](F)C5)nc3c2F)c1C(F)(F)F [Example 13, (S)-4-(7-(6-amino-4-methyl-3-(trifluoromethyl)pyridin-2-yl)-8-fluoro-2-(((2R,7aS)-2-fluorohexahydro-1H-pyrrolizin-7a-yl)methoxy)pyrido[4,3-d]pyrimidin-4-yl)-2-(cyanomethyl)piperazine-1-carbonitrile] | 10 to 100
5 | C=CC(=O)N1CC[C@@H](N(C)c2nc(OC[C@@]34CCCN3C[C@H](F)C4)nc3c(F)c(-c4nc(N)cc(C)c4C(F)(F)F)ncc23)C1 [Example 72, 1-((R)-3-((7-(6-amino-4-methyl-3-(trifluoromethyl)pyridin-2-yl)-8-fluoro-2-(((2R,7aS)-2-fluorotetrahydro-1H-pyrrolizin-7a(5H)-yl)methoxy)pyrido[4,3-d]pyrimidin-4-yl)(methyl)amino)pyrrolidin-1-yl)prop-2-en-1-one] | 10 to 100
6 | C=CC(=O)N1CC[C@@H](N(C)c2nc(OC[C@@]34CCCN3C[C@H](F)C4)nc3c(F)c(-c4cc(O)cc(Cl)c4C4CC4)ncc23)C1 [Example 12, 1-((R)-3-((7-(3-chloro-2-cyclopropyl-5-hydroxyphenyl)-8-fluoro-2-(((2R,7aS)-2-fluorotetrahydro-1H-pyrrolizin-7a(5H)-yl)methoxy)pyrido[4,3-d]pyrimidin-4-yl)(methyl)amino)pyrrolidin-1-yl)prop-2-en-1-one] | < 10
7 | C=CC(=O)N1CC[C@@H](N(C)c2nc(OC[C@@]34CCCN3C[C@H](F)C4)nc3c(F)c(-c4cccc(OC(F)F)c4C4CC4)ncc23)C1 [Example 187] | ≥ 500
8 | Cc1cc(N)nc(-c2ncc3c(N(C)[C@@H]4CCN(C(=O)/C=C/[C@@H]5CCN5C)C4)nc(OC[C@@]45CCCN4C[C@H](F)C5)nc3c2F)c1C(F)(F)F (single isomer, unassigned) [Example 27] | < 10
9 | Cc1noc(/C=C/C(=O)N2CC[C@@H](N(C)c3nc(OCC45CCCN4CCC5)nc4c3C[C@@H](C)[C@H](c3nc(N)cc(C)c3C(F)(F)F)C4)C2)n1 (single isomer, unassigned) [Compound 9] | 100 to 500
10 | C=CC(=O)N1CC(CN(C)c2nc(OC[C@@]34CCCN3C[C@H](F)C4)nc3c(F)c(-c4nc(N)cc5cccc(Cl)c45)ncc23)C1 [Example 73, 1-(3-(((7-(3-amino-8-chloroisoquinolin-1-yl)-8-fluoro-2-(((2R,7aS)-2-fluorohexahydro-1H-pyrrolizin-7a-yl)methoxy)pyrido[4,3-d]pyrimidin-4-yl)(methyl)amino)methyl)azetidin-1-yl)prop-2-en-1-one] | 10 to 100
11 | Cc1cc(N)nc([C@@H]2Cc3nc(OC[C@@]45CCCN4C[C@H](F)C5)nc(N(C)CC4CN(C(=O)/C=C/c5nc(C(C)(C)O)no5)C4)c3C[C@H]2C)c1C(F)(F)F (single isomer, unassigned) [Example 162] | 10 to 100

Source: patent publication US20260256789A1, “METHODS FOR TREATMENT OF CANCER” (Frontier Medicines Corporation, priority 2022, published 2026)
